Reference: US20130030048A1, “COMPOSITION FOR INDUCING MULTIPLE NUCLEAR DIVISION OF CELLS” (priority 2010, published 2013)

Tested on: Human Mammary Epithelial (HME) 50 HT cell line
Assay: Multiple nuclear divisions in cultured HME 50 HT cells
Format: cell-based
Details: HME 50 HT cells in serum-free medium; FIGS. 3 and 4
Experimental: Such a culture medium was treated with the composition comprising the compound of formula II obtained in the Example 1 and the compound of formula III obtained in the Examples 2 to 5, respectively.
And, it was found from the photomicrographs that the cells appeared very healthy and unstressed.

SMILES | multiple nuclear divisions in the cell (stained-cell image)
CCC1(N)C(=O)COC=C1C (centres unmarked) [compound of formula III] | multiple nuclear divisions occurred in the cell
C=CC1(N)C(=O)COC=C1C (centres unmarked) [compound of formula II] | multiple nuclear divisions occurred in the cell
